From patent publication US8592581B2, “Trisubstituted purine derivatives” (Cyclacel Limited, priority 2007, dated 2013)

Experiments:
[1] = target: CDK2/cyclin E (Homo sapiens (Human), UniProt P24941); test: In-vitro recombinant kinase assay CDK2/cyclin E; assay type: biochemical; conditions: Table 2; average of duplicate points; read-out: CDK2/Cyclin E Average IC50
Experimental: (§1) To evaluate the in-vitro kinase potency of the compounds, they were screened against CDK 2 and CDK9. Kinase assays were performed in 96-well plates using recombinant CDK/cyclins generated at Cyclacel. Ltd Dundee, UK. CDK2 and CDK9 assays were performed in a total volume of 25 μl in assay buffer (25 mM b-glycerophosphate, 20 mM MOPS, 5 mM EGTA, 1 mM DTT and 1 mM NaVO3, pH 7.4), into which were added 2-4 μg of active enzyme with appropriate substrates (purified histone H1 for CDK2/cyclin E, and CDK2/cyclin A, biotinyl-Ahx-(YSPTSPS)4 for CDK9/cyclin T1). […] CDK2 reactions were stopped by addition of 25 μl of 75 mM phosphoric acid, followed by filtration through P81 filterplates (Whatman Polyfiltronics, Kent, UK). For CDK9, the reaction was stopped by addition of 25 μl of 75 mM phosphoric acid, then 5 μl of 10 mg/ml avidin was added to each well and further incubated for 2 min followed by filtration as per CDK2 assay. After washing 3 times with 75 mM orthophosphoric acid, plates were dried, scintillant added and incorporated radioactivity measured in a scintillation counter (TopCount, Packard Instruments, Pangbourne, Berks, UK). Compounds for kinase assay were made up as 10 mM stocks in DMSO and diluted into 10% DMSO in assay buffer.
as §1

[2] = tested on: H460 non-small cell lung cancer (NSCLC) cell line; test: Alamar blue cytotoxicity assay in H460 NSCLC tumour cell line; assay type: cell-based; conditions: H460 cells, 72 hours, average of three independent experiments
Experimental: (§2) In order to determine the cellular potency of the compounds, the cytotoxicity of each compound was determined against the H460 non-small cell lung cancer (NSCLC) cell line. Standard cytotoxicity methods were performed as follows: H460 cells were seeded in 96-well plates appropriately for their doubling time (3000 cells per well) in RPMI media containing 10% FCS and incubated overnight at 37° C., 5% CO2. The media was removed and 100 μl fresh media containing increasing concentrations of appropriate compound was added and the cells incubated for 72 hours at 37° C., 5% CO2. A 10% stock of alamar blue (Roche, Lewes, United Kingdom) was prepared in medium and 100 μl added to the cells which were incubated for 2 hours.

[3] = target: CYP2C19 (Homo sapiens (Human), UniProt P33261); test: CYP2C19 inhibition, human liver microsomes, mephenyloin; assay type: in vitro ADME
Experimental: (§3) Six test compound concentrations (0.05, 0.25, 0.5, 2.5, 5, 25 μM in DMSO; final DMSO concentration=0.25%) were incubated with human liver microsomes (0.5 mg/mL) and NADPH (1 mM) in the presence of the probe substrate mephenyloin (25 μM) for 60 min at 37° C. The selective CYP2C19 inhibitor, tranylcypromine, was screened alongside the test compounds as a positive control.
(§4) For the CYP1A incubations, the reactions were terminated by the addition of methanol, and the formation of the metabolite, resorufin, was monitored by fluorescence (excitation wavelength=535 nm, emission wavelength=595 nm). For the CYP2C9, CYP2C19, CYP2D6, and CYP3A4 incubations, the reactions were terminated by the addition of methanol containing internal standard. The samples were then centrifuged, and the supernatants were combined, for the simultaneous analysis of 4-hydroxytolbutamide, 4-hydroxymephenyloin, dextrorphan, and 1-hydroxymidazolam plus internal standard by LC-MS/MS using generic LC-MS/MS conditions. Formic acid in deionised water (final concentration=0.1%) was added to the final sample prior to analysis.

[4] = target: CYP2C9 (Homo sapiens (Human), UniProt P11712); test: CYP2C9 inhibition, human liver microsomes, tolbutamide; assay type: in vitro ADME
Experimental: as §3, with “(1” for “(0.5”, “tolbutamide (120” for “mephenyloin (25”, “CYP2C9” for “CYP2C19”, “sulphaphenazole,” for “tranylcypromine,”
as §4

[5] = target: CYP2D6 (Homo sapiens (Human), UniProt P10635); test: CYP2D6 inhibition, human liver microsomes, dextromethorphan; assay type: in vitro ADME
Experimental: as §3, with “dextromethorphan (5” for “mephenyloin (25”, “30” for “60”, “CYP2D6” for “CYP2C19”, “quinidine,” for “tranylcypromine,”
as §4

[6] = tested on: H1650; test: Alamar blue cytotoxicity assay H1650; assay type: cell-based; conditions: Homo sapiens, NCI-H1650; 72 hours; read-out: cellular cytotoxicity IC50 H1650
Experimental: as §2, with “a range of” for “the H460 non-small”, “lines.” for “lung cancer (NSCLC) cell line.”, “follows:” for “follows: H460”, “(2-5000” for “(3000”, “RPMI or DMEM” for “RPMI”, “hours. Absorbance was measured on the Wallac Victor 2 1420 multi-label counter at 544-595 nm.” for “hours.”

[7] = tested on: H2052; test: Alamar blue cytotoxicity assay H2052; assay type: cell-based; conditions: Homo sapiens, NCI-H2052; 72 hours; read-out: cellular cytotoxicity IC50 H2052
Experimental: as §2, with “a range of” for “the H460 non-small”, “lines.” for “lung cancer (NSCLC) cell line.”, “follows:” for “follows: H460”, “(2-5000” for “(3000”, “RPMI or DMEM” for “RPMI”, “hours. Absorbance was measured on the Wallac Victor 2 1420 multi-label counter at 544-595 nm.” for “hours.”

[8] = tested on: LoVo; test: Alamar blue cytotoxicity assay LoVo; assay type: cell-based; conditions: Homo sapiens, 72 hours, read-out: cellular cytotoxicity IC50 LoVo
Experimental: as §2, with “a range of” for “the H460 non-small”, “lines.” for “lung cancer (NSCLC) cell line.”, “follows:” for “follows: H460”, “(2-5000” for “(3000”, “RPMI or DMEM” for “RPMI”, “hours. Absorbance was measured on the Wallac Victor 2 1420 multi-label counter at 544-595 nm.” for “hours.”

[9] = tested on: Colo205; test: Alamar blue cytotoxicity assay Colo205; assay type: cell-based; conditions: Homo sapiens, COLO 205; 72 hours; read-out: cellular cytotoxicity IC50 Colo205
Experimental: as §2, with “a range of” for “the H460 non-small”, “lines.” for “lung cancer (NSCLC) cell line.”, “follows:” for “follows: H460”, “(2-5000” for “(3000”, “RPMI or DMEM” for “RPMI”, “hours. Absorbance was measured on the Wallac Victor 2 1420 multi-label counter at 544-595 nm.” for “hours.”

[10] = tested on: A549; test: Alamar blue cytotoxicity assay A549; assay type: cell-based; conditions: Homo sapiens, 72 hours, read-out: cellular cytotoxicity IC50 A549
Experimental: as §2, with “a range of” for “the H460 non-small”, “lines.” for “lung cancer (NSCLC) cell line.”, “follows:” for “follows: H460”, “(2-5000” for “(3000”, “RPMI or DMEM” for “RPMI”, “hours. Absorbance was measured on the Wallac Victor 2 1420 multi-label counter at 544-595 nm.” for “hours.”

[11] = tested on: MESSA; test: Alamar blue cytotoxicity assay MESSA; assay type: cell-based; conditions: Homo sapiens, MES-SA; 72 hours; read-out: cellular cytotoxicity IC50 MESSA
Experimental: as §2, with “a range of” for “the H460 non-small”, “lines.” for “lung cancer (NSCLC) cell line.”, “follows:” for “follows: H460”, “(2-5000” for “(3000”, “RPMI or DMEM” for “RPMI”, “hours. Absorbance was measured on the Wallac Victor 2 1420 multi-label counter at 544-595 nm.” for “hours.”

[12] = tested on: MESSA-Dx5; test: Alamar blue cytotoxicity assay MESSA-Dx5; assay type: cell-based; conditions: Homo sapiens, MES-SA/Dx5; 72 hours; read-out: cellular cytotoxicity IC50 MESSA-Dx5
Experimental: as §2, with “a range of” for “the H460 non-small”, “lines.” for “lung cancer (NSCLC) cell line.”, “follows:” for “follows: H460”, “(2-5000” for “(3000”, “RPMI or DMEM” for “RPMI”, “hours. Absorbance was measured on the Wallac Victor 2 1420 multi-label counter at 544-595 nm.” for “hours.”

[13] = tested on: MCF7; test: Alamar blue cytotoxicity assay MCF7; assay type: cell-based; conditions: Homo sapiens, 72 hours, read-out: cellular cytotoxicity IC50 MCF7
Experimental: as §2, with “a range of” for “the H460 non-small”, “lines.” for “lung cancer (NSCLC) cell line.”, “follows:” for “follows: H460”, “(2-5000” for “(3000”, “RPMI or DMEM” for “RPMI”, “hours. Absorbance was measured on the Wallac Victor 2 1420 multi-label counter at 544-595 nm.” for “hours.”

Sequence of CYP2D6 (P10635 whole entry): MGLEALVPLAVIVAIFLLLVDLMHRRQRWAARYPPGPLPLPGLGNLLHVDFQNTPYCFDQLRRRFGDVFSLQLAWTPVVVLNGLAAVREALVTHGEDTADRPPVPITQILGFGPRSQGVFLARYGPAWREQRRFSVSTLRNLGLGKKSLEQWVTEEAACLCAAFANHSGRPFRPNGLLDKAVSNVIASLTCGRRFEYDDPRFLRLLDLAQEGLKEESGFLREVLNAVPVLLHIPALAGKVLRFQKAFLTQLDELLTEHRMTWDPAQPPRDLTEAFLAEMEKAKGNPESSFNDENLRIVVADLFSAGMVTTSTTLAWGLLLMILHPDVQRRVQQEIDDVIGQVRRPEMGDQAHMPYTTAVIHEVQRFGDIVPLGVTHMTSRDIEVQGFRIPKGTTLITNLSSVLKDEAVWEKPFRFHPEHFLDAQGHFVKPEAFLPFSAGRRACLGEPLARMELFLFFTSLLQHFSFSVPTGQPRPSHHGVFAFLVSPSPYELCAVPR
Sequence of CYP2C19 (P33261 whole entry): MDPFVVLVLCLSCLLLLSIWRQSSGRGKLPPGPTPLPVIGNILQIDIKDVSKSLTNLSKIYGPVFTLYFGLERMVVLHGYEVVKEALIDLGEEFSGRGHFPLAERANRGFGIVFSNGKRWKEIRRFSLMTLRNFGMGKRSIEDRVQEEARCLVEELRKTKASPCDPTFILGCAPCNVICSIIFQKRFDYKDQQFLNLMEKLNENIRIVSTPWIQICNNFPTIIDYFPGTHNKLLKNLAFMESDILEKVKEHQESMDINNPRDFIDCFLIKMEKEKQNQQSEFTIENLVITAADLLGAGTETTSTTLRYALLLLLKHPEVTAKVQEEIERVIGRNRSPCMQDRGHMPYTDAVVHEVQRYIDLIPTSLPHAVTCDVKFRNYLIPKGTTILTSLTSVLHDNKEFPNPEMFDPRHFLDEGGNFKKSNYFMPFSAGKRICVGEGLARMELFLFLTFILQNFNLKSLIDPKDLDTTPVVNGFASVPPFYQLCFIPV
Sequence of CYP2C9 (P11712 whole entry): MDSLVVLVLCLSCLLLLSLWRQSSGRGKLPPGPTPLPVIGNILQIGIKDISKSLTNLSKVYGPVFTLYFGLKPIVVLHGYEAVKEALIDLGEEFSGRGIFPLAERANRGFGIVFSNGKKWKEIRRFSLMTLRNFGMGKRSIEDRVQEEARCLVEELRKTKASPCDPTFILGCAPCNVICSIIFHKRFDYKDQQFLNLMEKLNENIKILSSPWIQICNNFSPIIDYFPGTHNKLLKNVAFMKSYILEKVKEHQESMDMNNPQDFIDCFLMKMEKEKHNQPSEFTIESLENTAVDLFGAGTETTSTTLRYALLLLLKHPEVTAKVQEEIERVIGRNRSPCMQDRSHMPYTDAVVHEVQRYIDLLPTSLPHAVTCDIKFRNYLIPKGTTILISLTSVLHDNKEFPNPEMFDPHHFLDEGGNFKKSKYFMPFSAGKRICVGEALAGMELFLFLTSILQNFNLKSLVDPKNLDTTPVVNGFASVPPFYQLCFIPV

Compound: CC[C@H](Nc1nc(NCc2cnc(C)cc2C)c2ncn(C(C)C)c2n1)[C@@H](C)O [Compound [1]]
- IC50 [1]: 20 nM
- IC50 [2]: 500 nM
- IC50 ([2]; Homo sapiens, NCI-H460, 72 h): < 1000 nM
- IC50 [3]: > 25 µM
- IC50 [4]: 23.8 µM
- IC50 [5]: > 25 µM
- IC50 [6]: 460 nM
- IC50 [7]: 290 nM
- IC50 [8]: 700 nM
- IC50 [9]: 310 nM
- IC50 [10]: 160 nM
- IC50 [11]: 160 nM
- IC50 [12]: 1210 nM
- IC50 [13]: 260 nM
